Holding throughout (experiment): GFP plasmid transfection with DOTMA/DOPE plus plant virus movement protein derived peptides (Example 2)
What all share (type): cell-based

One experiment relates to HuVec Cells. As to conditions: 42 hours. Here is the method:
(§1) Cells were plated to so that on the day of transfection the cells were 70% confluent in 96 well tissue culture plates. A DOMTA/DOPE Lipid solution (1:1 molar ratio) at 2 mg/mL in water were mixed with an equal volume of plant virus movement protein derived peptides that had the nucleic acid binding moiety RRRRRRRRRRRR (SEQ ID NO:109) or KKKKKKKKKKKKKKKK (SEQ ID NO: 102) covalently linked to the N-terminus, or C-terminus of each peptide during peptide synthesis. Peptides were at 2 mg/mL in water. The DOTMA/DOPE and the plant virus movement peptide solution the was diluted 1 to 1 (v/v) in water. DOMTA/DOPE/PEPTIDE solutions were added to 0.1 mL of a plasmid DNA solution (EF1Alpha eGFP plasmid) at 10 μg/mL in OptiMEM.
(§2) All solutions were at room temperature. A volume of 0.2 mL of a 10 μg/mL solution of DNA was aliquoted into each well of a non-tissue cultured treated plate. 1-6 μL of transfection reagents were added to DNA solutions respectively. The transfection reagent and DNA solution was mixed by pipetting up and down twice. Transfection complexes were formed for 10 minutes. After 10 minutes, 0.01 or 0.02 mL of the transfection complex was added to cells. HuVEC, HeLa, human adult keratinocytes, human primary adult fibroblast, and A549 cells all respectively received 0.01 mL of the transfection complex. Human skeletal muscle cells, mouse C2C12 cells, and Jurkat, cells received 0.02 mL of the transfection complex. Cells were incubated for 42 hours at 37° C. at 5% CO2. Plates were read on a fluorescent plate reader. Cells were also examined visually under a microscope to assess the extent of transfection (in terms of the percent of cells transfected) with a fluorescent microscope. Other modes of analysis, for example quantification with B-galactosidase or luciferase reports plasmids can also be used.

Experiment [1] has as its system Human Primary Fibroblast Cells. As to conditions: 42 hours. Here is the method: as §1, §2
A further experiment has as its system HeLa Cells. As to conditions: 1-6 μL of transfection reagents. Here is the method:
as §1, §2

The mark [2] stands for this setting: value column 1 of 6, head not given, 1 µL transfection reagent.
Where [3] appears, read: value column 3 of 6, head not given, 3 µL transfection reagent.
Where [4] appears, read: value column 4 of 6, head not given, 4 µL transfection reagent.

For “545 (KSVPNRTRTYIKLKRLRFKGAPYKAWRRRRRRRRRRRR) [compound 545]”, the “Relative Fluorescence of Transfection of HuVEC Cells” value with HuVec Cells (Transfection Agent 1 μl) was 26545 Rf; in the experiment on HuVec Cells (Transfection Agent 1.5 μl) it was 36649 Rf; in the experiment on HuVec Cells (Transfection Agent 2 μl), 46890 Rf; in the experiment with HuVec Cells (Transfection Agent 3 μl), 34047 Rf; with HuVec Cells (Transfection Agent 4 μl), 30893 Rf; in the experiment with HuVec Cells (Transfection Agent 6 μl), 27133 Rf. Moreover, the “Relative Fluorescence of Transfection of Human Primary Fibroblast Cells” value in experiment [1] (Transfection Agent 1 μl) is on record as 34309 Rf; in experiment [1] (Transfection Agent 1.5 μl), 48184 Rf; in experiment [1] (Transfection Agent 2 μl) it was 37497 Rf; in experiment [1] (Transfection Agent 3 μl) it was 29067 Rf; in experiment [1] (Transfection Agent 4 μl), 28928 Rf; in experiment [1] (Transfection Agent 6 μl) it was 29256 Rf. Besides, the “Relative Fluorescence of Transfection of Hela Cells” value is recorded as 28529 in the experiment on HeLa Cells (2 µL transfection reagent); 13009 with HeLa Cells (5 µL transfection reagent); 11056 in the experiment on HeLa Cells (setting [2]); 28943 in the experiment on HeLa Cells (setting [3]); 14693 with HeLa Cells (setting [4]).

For the substance “547 (SYVKTVPNRTRTYIKGGGGGRRRRRRRRRRRR) [compound 547]”, the “Relative Fluorescence of Transfection of HuVEC Cells” value with HuVec Cells (Transfection Agent 1 μl) is 24554 Rf; in the experiment on HuVec Cells (Transfection Agent 1.5 μl), 26172 Rf; with HuVec Cells (Transfection Agent 2 μl), 28255 Rf; in the experiment with HuVec Cells (Transfection Agent 3 μl), 32494 Rf; in the experiment on HuVec Cells (Transfection Agent 4 μl), 31180 Rf; with HuVec Cells (Transfection Agent 6 μl), 26775 Rf. The “Relative Fluorescence of Transfection of Human Primary Fibroblast Cells” value in experiment [1] (Transfection Agent 1 μl) is given as 29141 Rf; in experiment [1] (Transfection Agent 1.5 μl), 33704 Rf; in experiment [1] (Transfection Agent 2 μl), 35175 Rf; in experiment [1] (Transfection Agent 3 μl), 35563 Rf; in experiment [1] (Transfection Agent 4 μl), 33951 Rf; in experiment [1] (Transfection Agent 6 μl), 30539 Rf. Besides, the “Relative Fluorescence of Transfection of Hela Cells” value is recorded as 9491 with HeLa Cells (2 µL transfection reagent); 8829 with HeLa Cells (5 µL transfection reagent); 5899 in the experiment on HeLa Cells (setting [2]); 10275 in the experiment on HeLa Cells (setting [3]); 11241 in the experiment with HeLa Cells (setting [4]).

For the substance “546 (RTGVKRSYGAARGDDRRRPNVVRRRRRRRRRRRR) [compound 546]”, the “Relative Fluorescence of Transfection of HuVEC Cells” value in the experiment with HuVec Cells (Transfection Agent 1 μl) was found to be 25990 Rf; in the experiment on HuVec Cells (Transfection Agent 1.5 μl), 32762 Rf; in the experiment on HuVec Cells (Transfection Agent 2 μl) it was 37899 Rf; with HuVec Cells (Transfection Agent 3 μl) it was 35528 Rf; with HuVec Cells (Transfection Agent 4 μl) it was 31614 Rf; in the experiment on HuVec Cells (Transfection Agent 6 μl), 27690 Rf. Further, the “Relative Fluorescence of Transfection of Human Primary Fibroblast Cells” value in experiment [1] (Transfection Agent 1 μl) stood at 31980 Rf; in experiment [1] (Transfection Agent 1.5 μl), 39259 Rf; in experiment [1] (Transfection Agent 2 μl), 41747 Rf; in experiment [1] (Transfection Agent 3 μl), 35020 Rf; in experiment [1] (Transfection Agent 4 μl), 32220 Rf; in experiment [1] (Transfection Agent 6 μl), 29476 Rf. Besides, the “Relative Fluorescence of Transfection of Hela Cells” value with HeLa Cells (2 µL transfection reagent) came to 15022; in the experiment on HeLa Cells (5 µL transfection reagent), 8117; in the experiment on HeLa Cells (setting [2]), 15190; in the experiment with HeLa Cells (setting [3]), 12772; in the experiment with HeLa Cells (setting [4]), 11535.

Take 109 (RRRRRRRRRRRR) [compound 109]: the “Relative Fluorescence of Transfection of HuVEC Cells” value is on record as 24603 Rf with HuVec Cells (Transfection Agent 1 μl); 25735 Rf with HuVec Cells (Transfection Agent 1.5 μl); 25421 Rf with HuVec Cells (Transfection Agent 2 μl); 26641 Rf in the experiment on HuVec Cells (Transfection Agent 3 μl); 26529 Rf with HuVec Cells (Transfection Agent 4 μl); 25907 Rf in the experiment with HuVec Cells (Transfection Agent 6 μl). The “Relative Fluorescence of Transfection of Human Primary Fibroblast Cells” value was 28368 Rf in experiment [1] (Transfection Agent 1 μl); 30373 Rf in experiment [1] (Transfection Agent 1.5 μl); 29858 Rf in experiment [1] (Transfection Agent 2 μl); 29895 Rf in experiment [1] (Transfection Agent 3 μl); 30941 Rf in experiment [1] (Transfection Agent 4 μl); 29386 Rf in experiment [1] (Transfection Agent 6 μl). The “Relative Fluorescence of Transfection of Hela Cells” value is on record as 5578 in the experiment with HeLa Cells (2 µL transfection reagent); 8007 with HeLa Cells (5 µL transfection reagent); 4157 with HeLa Cells (setting [2]); 6606 in the experiment on HeLa Cells (setting [3]); 8520 with HeLa Cells (setting [4]).
